{
  "source": "paper PMC8294059",
  "about": "“Identification and Immune Assessment of T Cell Epitopes in Five Plasmodium falciparum Blood Stage Antigens to Facilitate Vaccine Candidate Selection and Optimization” (Frontiers in Immunology, 2021)",
  "experiment_in_all_cases": "biochemical",
  "format_in_all_cases": "binding",
  "key": {"[1]": {"target": "HLA-DRB1*0301 (Homo sapiens, UniProt P01903+P01911, A100K/A102G/A103R/A169T/F55Y/I96L/K41T/L162R/M171V/P40S/Q125H/Q178H/Q39Y/R42S/S66N/T106N/T262R/W38E/Y61H)", "sequence (P01903 26-254 limits assumed, other chains not shown)": "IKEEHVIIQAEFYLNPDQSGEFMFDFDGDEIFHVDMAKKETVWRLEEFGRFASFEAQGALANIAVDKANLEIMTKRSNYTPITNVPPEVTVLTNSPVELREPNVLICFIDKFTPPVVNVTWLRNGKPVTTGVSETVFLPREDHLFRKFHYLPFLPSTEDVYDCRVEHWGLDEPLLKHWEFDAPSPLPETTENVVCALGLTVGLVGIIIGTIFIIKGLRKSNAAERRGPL"}, "[2]": {"target": "HLA-DRB1*0801 (Homo sapiens, UniProt P01903+P01911, A100R/A103L/A169T/D86S/F76Y/H45Y/I96F/K41T/L162R/M171V/P40S/Q125H/Q178H/Q39Y/Q99D/R218S/R42G/S66Y/V115G/W38E)", "summary_of_the_method": "(§1)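 IC50 values reflect how well each test peptide displaces a labeled high-affinity reference peptide from commercially available HLA-DRB1 allele monomers. Final test concentrations spanned 100,000 nM to 100 nM, with detection by europium-based time-resolved fluorescence after anti-HLA-DR capture.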"}, "[3]": {"target": "T1, HLA-DRB1*0401 (Homo sapiens, UniProt P01903+P01911, A100K/A169T/F76Y/I96L/K127E/L162R/M171V/N62H/P40V/Q125Y/R42H/S133A/S149N/S66Y/V115G/V209L/W38E)", "T1 construct": "purchased", "summary_of_the_method": "as §1"}, "[4]": {"target": "T2, HLA-DRB1*1501 (Homo sapiens, UniProt P01903+P01911)", "T2 construct": "purchased", "summary_of_the_method": "as §1"}, "[5]": {"target": "HLA-DRB1*1101 (Homo sapiens, UniProt P01903+P01911, A100R/A169T/A87E/I96F/K41T/L162R/M171V/P40S/Q125H/Q178H/Q39Y/Q99D/R42S/S66Y/T262R/V115G/W38E)", "sequence (P01903 26-254 limits assumed, other chains not shown)": "as above", "summary_of_the_method": "as §1"}, "[6]": {"target": "HLA-DRB1*0701 (Homo sapiens, UniProt P01903+P01911, A100R/A102G/A103Q/D57E/D86V/E43K/F76Y/K127E/L162R/M171V/P40G/Q125H/Q99D/R33Q/R42Y/R54Q/S133A/S66F/T210M/V115G/Y107V/Y59L/Y89S)", "summary_of_the_method": "as §1"}, "[7]": {"target": "T3, HLA-DRB1*0101 (Homo sapiens, UniProt P01903+P01911, A100R/D57E/F55L/F60I/F76Y/I96L/L162R/M171V/P40L/Q125E/R42F/V115G/Y59C)", "T3 construct": "purchased", "summary_of_the_method": "as §1"}, "[8]": {"target": "HLA-DRB1*1301 (Homo sapiens, UniProt P01903+P01911, A100E/A169T/K41T/L162R/M171V/P40S/Q125H/Q178H/Q39Y/Q99D/R42S/S66N/T262R/W38E/Y61H)", "summary_of_the_method": "as §1"}, "[9]": {"settings": "binding inhibition assay, NB = non-binder (no dose-dependent inhibition), read-out: DRB1*0303 IC50"}, "[10]": {"settings": "binding inhibition assay, NB = non-binder (no dose-dependent inhibition), read-out: DRB1*1501 IC50"}, "[11]": {"settings": "binding inhibition assay, NB = non-binder (no dose-dependent inhibition), read-out: DRB1*0701 IC50"}, "[12]": {"settings": "binding inhibition assay, NB = non-binder (no dose-dependent inhibition), read-out: DRB1*0101 IC50"}},
  "note": "Like-named read-outs stand apart in the source and are kept apart here. Where a SMILES comes first, the peptide text is derived from it.",
  "data": [
    {"smiles": "CC[C@H](C)[C@H](NC(=O)[C@H](CCSC)NC(=O)[C@H](CO)NC(=O)[C@H](C)NC(=O)[C@H](CC(N)=O)NC(=O)[C@H](CCCCN)NC(=O)[C@H](CC(N)=O)NC(=O)[C@H](CCCCN)NC(=O)[C@H](Cc1ccccc1)NC(=O)CNC(=O)[C@H](CCC(=O)O)NC(=O)[C@H](CCCCN)NC(C)=O)C(=O)N[C@@H](CCCCN)C(=O)N[C@@H](CO)C(N)=O", "note": "[AMA1_006A] (Ac-KEGFKNKNASMIKS-NH2)", "values": [
      {"measurement": "IC50", "setting": "[1]; read-out: DRB1*0303 IC50", "result": "> 100", "unit": "µM"},
      {"measurement": "IC50", "setting": "[2]", "result": 3.74, "unit": "µM"},
      {"measurement": "IC50", "setting": "[3]; read-out: DRB1*0401 IC50", "result": "> 100", "unit": "µM"},
      {"measurement": "IC50", "setting": "[4]; read-out: DRB1*1501 IC50", "result": "> 100", "unit": "µM"},
      {"measurement": "IC50", "setting": "[5]; read-out: DRB1*1101 IC50", "result": "> 100", "unit": "µM"},
      {"measurement": "IC50", "setting": "[6]; read-out: DRB1*0701 IC50", "result": "> 100", "unit": "µM"},
      {"measurement": "IC50", "setting": "[7]", "result": 3.94, "unit": "µM"},
      {"measurement": "IC50", "setting": "[8]; read-out: DRB1*1301 IC50", "result": "> 100", "unit": "µM"}
    ]},
    {"smiles": "CC[C@H](C)[C@H](NC(=O)[C@H](CO)NC(=O)[C@@H](NC(=O)[C@@H](N)CC(N)=O)[C@@H](C)CC)C(=O)N[C@@H](Cc1ccc(O)cc1)C(=O)N[C@@H](Cc1ccccc1)C(=O)N[C@@H](Cc1ccccc1)C(=O)N[C@@H](C)C(=O)N[C@@H](CO)C(=O)N[C@@H](Cc1ccccc1)C(=O)N[C@@H](Cc1ccccc1)C(=O)N[C@H](C(=O)N[C@@H](CC(C)C)C(=O)N[C@@H](Cc1ccc(O)cc1)C(=O)N[C@@H](Cc1ccccc1)C(=O)N[C@@H](C)C(=O)N[C@@H](CCCCN)C(N)=O)C(C)C", "note": "[EBA175_001A] (H-NISIYFFASFFVLYFAK-NH2)", "values": [
      {"measurement": "IC50", "setting": "[1]", "result": 1.2, "unit": "µM"},
      {"measurement": "IC50", "setting": "[2]", "result": 9.34, "unit": "µM"},
      {"measurement": "IC50", "setting": "[3]", "result": 0.719, "unit": "µM"},
      {"measurement": "IC50", "setting": "[4]", "result": 0.356, "unit": "µM"},
      {"measurement": "IC50", "setting": "[5]", "result": 0.357, "unit": "µM"},
      {"measurement": "IC50", "setting": "[6]", "result": 0.983, "unit": "µM"},
      {"measurement": "IC50", "setting": "[7]", "result": 0.896, "unit": "µM"},
      {"measurement": "IC50", "setting": "[8]", "result": 1.19, "unit": "µM"}
    ]},
    {"smiles": "CC[C@H](C)[C@H](NC(=O)[C@H](CC(=O)O)NC(=O)[C@H](CCC(=O)O)NC(=O)[C@H](Cc1ccc(O)cc1)NC(C)=O)C(=O)N[C@H](C(=O)N[C@@H](CC(C)C)C(=O)N[C@@H](CCCCN)C(=O)N[C@@H](CO)C(=O)N[C@@H](Cc1c[nH]cn1)C(=O)N[C@@H](CCSC)C(=O)N[C@@H](CC(N)=O)C(=O)N[C@@H](CCCNC(=N)N)C(=O)N[C@@H](CCC(=O)O)C(=O)N[C@@H](CO)C(=O)N[C@@H](CC(=O)O)C(=O)N[C@@H](CC(=O)O)C(N)=O)C(C)C", "note": "[EBA175_015] (Ac-YEDIVLKSHMNRESDD-NH2)", "values": [
      {"measurement": "IC50", "setting": "[1]; [9]", "result": "> 100", "unit": "µM"},
      {"measurement": "IC50", "setting": "[4]; [10]", "result": 36, "unit": "µM"},
      {"measurement": "IC50", "setting": "[6]; [11]", "result": "> 100", "unit": "µM"},
      {"measurement": "IC50", "setting": "[7]; [12]", "result": 19.7, "unit": "µM"},
      {"measurement": "IC50", "setting": "[8]; binding inhibition assay, NB = non-binder (no dose-dependent inhibition), read-out: DRB1*1301 IC50", "result": 4.92, "unit": "µM"}
    ]},
    {"smiles": "CC[C@H](C)[C@H](NC(=O)[C@H](CC(N)=O)NC(=O)[C@H](CC(N)=O)NC(=O)[C@H](Cc1ccccc1)NC(=O)[C@H](CC(N)=O)NC(=O)[C@H](CC(N)=O)NC(=O)[C@H](CC(N)=O)NC(=O)[C@H](CC(N)=O)NC(=O)[C@H](CO)NC(=O)[C@H](CCCNC(=N)N)NC(=O)[C@H](CCSC)NC(=O)[C@H](CC(N)=O)NC(=O)[C@H](CC(C)C)NC(=O)[C@@H](NC(=O)[C@H](CC(N)=O)NC(=O)CNC(=O)[C@@H](N)CO)C(C)C)C(N)=O", "note": "[EBA175_017A] (H-SGNVLNMRSNNNNFNNI-NH2)", "values": [
      {"measurement": "IC50", "setting": "[1]", "result": 1.99, "unit": "µM"},
      {"measurement": "IC50", "setting": "[2]", "result": 13.9, "unit": "µM"},
      {"measurement": "IC50", "setting": "[3]", "result": 2.56, "unit": "µM"},
      {"measurement": "IC50", "setting": "[4]", "result": 2.72, "unit": "µM"},
      {"measurement": "IC50", "setting": "[5]", "result": 3.13, "unit": "µM"},
      {"measurement": "IC50", "setting": "[6]", "result": 1.1, "unit": "µM"},
      {"measurement": "IC50", "setting": "[7]", "result": 0.814, "unit": "µM"},
      {"measurement": "IC50", "setting": "[8]", "result": 7.42, "unit": "µM"}
    ]},
    {"smiles": "CC[C@H](C)[C@H](NC(=O)[C@H](Cc1ccc(O)cc1)NC(=O)[C@@H]1CCCN1C(=O)[C@H](CC(N)=O)NC(=O)[C@H](CC(=O)O)NC(C)=O)C(=O)N[C@@H](CO)C(=O)N[C@@H](CCCCN)C(=O)N[C@@H](Cc1ccc(O)cc1)C(=O)NCC(=O)N[C@@H](CC(N)=O)C(=O)N[C@@H](CCCCN)C(=O)N[C@@H](CC(C)C)C(=O)N[C@@H](CS)C(=O)N[C@@H](CCC(=O)O)C(=O)N[C@@H](CCCNC(=N)N)C(N)=O", "note": "[RIPR_014] (Ac-DNPYISKYGNKLCER-NH2)", "values": [
      {"measurement": "IC50", "setting": "[1]; [9]", "result": "> 100", "unit": "µM"},
      {"measurement": "IC50", "setting": "[2]; binding inhibition assay, NB = non-binder (no dose-dependent inhibition), read-out: DRB1*0801 IC50", "result": 95, "unit": "µM"},
      {"measurement": "IC50", "setting": "[4]; [10]", "result": 0.025, "unit": "µM"},
      {"measurement": "IC50", "setting": "[6]; [11]", "result": "> 100", "unit": "µM"},
      {"measurement": "IC50", "setting": "[7]; [12]", "result": 0.092, "unit": "µM"}
    ]}
  ]
}
